Measurements taken from ChEMBL document CHEMBL1201862, “PubChem BioAssay data set” (2004).
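Assay format: 96-well plates, 48-hour exposure. GI50 marks 50% less growth.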 The source made the active and inactive calls. No stated cut-off is given here; in the data, active = GI50 up to about 1.1 µM and inactive = higher.

How the values were obtained:
Assay in all cases: inhibition of tumour cell growth, NCI panel, 48 h
HL-60 = tested on: HL-60
NCI/ADR-RES = tested on: NCI/ADR-RES
SK-OV-3 = tested on: SK-OV-3
MDA-N = tested on: MDA-N
BT-549 = tested on: BT-549
NCI-H226 = tested on: NCI-H226
SN12C = tested on: SN12C
PC-3 = tested on: PC-3
786-0 = tested on: 786-0
MOLT-4 = tested on: MOLT-4
Hs-578T = tested on: Hs-578T
HCT-15 = tested on: HCT-15
DU-145 = tested on: DU-145
CAKI-1 = tested on: CAKI-1
UACC-257 = tested on: UACC-257
T47D = tested on: T47D

Row | Structure (SMILES) | GI50 (HL-60) | GI50 (NCI/ADR-RES) | GI50 (SK-OV-3) | GI50 (MDA-N) | GI50 (BT-549) | GI50 (NCI-H226) | GI50 (SN12C) | GI50 (PC-3) | GI50 (786-0) | GI50 (MOLT-4) | GI50 (Hs-578T) | GI50 (HCT-15) [µM] | GI50 (DU-145) | GI50 (CAKI-1) | GI50 (UACC-257) | GI50 (T47D)
1 | N=C(N)SCCc1ccncc1 | > 100 µM (inactive) | > 100 µM (inactive) | > 100 µM (inactive) | > 100 µM (inactive) | > 100 µM (inactive) | > 100 µM (inactive) | > 100 µM (inactive) | > 100 µM (inactive) | > 100 µM (inactive) | > 100 µM (inactive) | > 100 µM (inactive) | > 100 | > 100 µM (inactive) | > 100 µM (inactive) | > 100 µM (inactive) | > 100 µM (inactive)
2 | CCN(CC(=O)O)C(=O)c1cccnc1 |  | > 100 µM (inactive) |  | > 100 µM (inactive) | > 100 µM (inactive) |  | > 100 µM (inactive) | > 100 µM (inactive) | > 100 µM (inactive) | > 100 µM (inactive) | > 100 µM (inactive) | > 100 | > 100 µM (inactive) | > 100 µM (inactive) | > 100 µM (inactive) | > 100 µM (inactive)
3 | CCOC(=O)c1c(N2CCCC2)[nH]c(=O)c(C(c2cccs2)c2c(O)c(C(=O)OCC)c(N3CCCC3)[nH]c2=O)c1O |  | > 100 µM (inactive) | > 100 µM (inactive) | > 100 µM (inactive) | > 100 µM (inactive) | > 100 µM (inactive) | > 100 µM (inactive) | > 100 µM (inactive) | > 100 µM (inactive) | > 100 µM (inactive) | > 100 µM (inactive) | > 100 | > 100 µM (inactive) | > 100 µM (inactive) | > 100 µM (inactive) | > 100 µM (inactive)
4 | Cc1nc2ccc(S(=O)(=O)NS(=O)(=O)c3ccc(-c4ccccc4)cc3)cc2c(=O)n1NS(=O)(=O)c1ccc(-c2ccccc2)cc1 | > 100 µM (inactive) | > 100 µM (inactive) | > 100 µM (inactive) | > 100 µM (inactive) | > 100 µM (inactive) | > 100 µM (inactive) | > 100 µM (inactive) | > 100 µM (inactive) | > 100 µM (inactive) | > 100 µM (inactive) | > 100 µM (inactive) | > 100 | > 100 µM (inactive) | > 100 µM (inactive) | > 100 µM (inactive) | > 100 µM (inactive)
5 | COc1cc2c(cc1OC)C(=O)/C(=C/c1ccc(N(C)C)cc1)CC2 | > 10 µM (inactive) | > 10 µM (inactive) | > 10 µM (inactive) | > 10 µM (inactive) | > 10 µM (inactive) | > 10 µM (inactive) | > 10 µM (inactive) | > 10 µM (inactive) | > 10 µM (inactive) | > 10 µM (inactive) | > 10 µM (inactive) | > 10 | > 10 µM (inactive) | > 10 µM (inactive) | 3.38 µM (inactive) | > 10 µM (inactive)
6 | COc1ccc(N2C(=O)C3c4[nH]c5c(C)cccc5c4C4CCC(C(C)C)CC4C3C2=O)cc1 (stereo not given) |  | 16.1 µM (inactive) | 16.4 µM (inactive) | 10.3 µM (inactive) | 28.6 µM (inactive) | 13.9 µM (inactive) | 8.3 µM (inactive) | 8.87 µM (inactive) | 4.38 µM (inactive) | 2.12 µM (inactive) | 8.09 µM (inactive) | 10 | 12.2 µM (inactive) | 15 µM (inactive) | 31 µM (inactive) | 5.96 µM (inactive)
7 | Cc1ccc(C(=O)N/N=C2/C(=O)c3c4ccccc4cc4cccc2c34)cc1 | 10.2 µM (inactive) | 30.1 µM (inactive) | 23.7 µM (inactive) | 37.8 µM (inactive) | > 100 µM (inactive) | > 69.3 µM (inactive) | 21.8 µM (inactive) | 25.3 µM (inactive) | 14.2 µM (inactive) |  | 19.1 µM (inactive) | 20.6 | 3.44 µM (inactive) | 25.4 µM (inactive) | > 87.9 µM (inactive) | 13.4 µM (inactive)
8 | C=COC(=O)N1C2CCCC(Cl)(C(C)=O)C1CC2 (stereo not given) |  | > 100 µM (inactive) | > 100 µM (inactive) | 79.1 µM (inactive) | > 100 µM (inactive) | > 100 µM (inactive) | > 100 µM (inactive) | > 100 µM (inactive) | > 100 µM (inactive) | > 100 µM (inactive) | > 100 µM (inactive) | > 100 | > 100 µM (inactive) | > 100 µM (inactive) | > 100 µM (inactive) | > 100 µM (inactive)
9 | CCN1CCC(O)(c2ccc(Oc3ccc(C)cc3)cc2)C(C(=O)c2ccc(Oc3ccc(C)cc3)cc2)C1 (stereo not given) | 1.68 µM (inactive) | 13.8 µM (inactive) | 16.1 µM (inactive) | 10.7 µM (inactive) | 10.6 µM (inactive) | 14.1 µM (inactive) | 14.8 µM (inactive) | 10.9 µM (inactive) | 4.99 µM (inactive) | 10.3 µM (inactive) | 17.8 µM (inactive) | 4.01 | 7.28 µM (inactive) | 12.9 µM (inactive) | 13.2 µM (inactive) | 12.8 µM (inactive)
10 | C=CCSc1nnc2cc(CN3CCCC3)c(-c3ccc(Cl)cc3)nn12 | 17.9 µM (inactive) | 23.3 µM (inactive) | 20.2 µM (inactive) | 16.7 µM (inactive) | 20.7 µM (inactive) | 11.2 µM (inactive) | 16.8 µM (inactive) | 17.9 µM (inactive) | 17.1 µM (inactive) | 26 µM (inactive) | 40.6 µM (inactive) | 21.3 | 20.3 µM (inactive) | 26.5 µM (inactive) | 17.5 µM (inactive) | 20.9 µM (inactive)
11 | COC1CC(OC2CCC3(C)C(=CCC4C3C(OC(C)=O)C(OC(=O)CC(C)C)C3(C)C(C(C)=O)CCC43O)C2)OC(C)C1OC1CC(OC)C(OC2CC(OC)C(OC3OC(C)C(OC4OC(CO)C(O)C(O)C4O)C(OC)C3O)C(C)O2)C(C)O1 (stereo not given) | > 75 µM (inactive) | > 75 µM (inactive) | > 75 µM (inactive) | > 75 µM (inactive) | > 75 µM (inactive) | > 75 µM (inactive) | > 75 µM (inactive) | > 75 µM (inactive) | > 75 µM (inactive) | > 75 µM (inactive) | > 75 µM (inactive) | > 75 | > 75 µM (inactive) | > 75 µM (inactive) | > 75 µM (inactive) | > 75 µM (inactive)
12 | Cc1ccc(P(c2ccc(C)cc2)c2ccc(C)cc2)cc1 | 28.8 µM (inactive) | 27.5 µM (inactive) | 30.4 µM (inactive) | 21.9 µM (inactive) | 35.4 µM (inactive) |  | 17 µM (inactive) | 30.6 µM (inactive) |  | 16.5 µM (inactive) | 15.5 µM (inactive) | 20.2 | 16.5 µM (inactive) | 23.2 µM (inactive) | 22.1 µM (inactive) | 16.3 µM (inactive)
13 | CC(C)C(=O)OCN(C)c1nc(N(C)COC(=O)C(C)C)nc(N(C)COC(=O)C(C)C)n1 | 22.3 µM (inactive) | 34.8 µM (inactive) |  | 22.2 µM (inactive) | 20.8 µM (inactive) | 41.4 µM (inactive) | 28.4 µM (inactive) | 27.7 µM (inactive) | 28.5 µM (inactive) | 22.3 µM (inactive) | 17.9 µM (inactive) | 21.6 | 37.5 µM (inactive) | 34.5 µM (inactive) | 19.1 µM (inactive) | 30.3 µM (inactive)
14 | Cc1nn(C(=O)c2ccccc2O)c2c1C(c1ccccc1O)SC(=N)N2 (stereo not given) | 2.22 µM (inactive) | 4.09 µM (inactive) | 5.02 µM (inactive) | > 10 µM (inactive) | > 10 µM (inactive) | 1.49 µM (inactive) | 4.82 µM (inactive) | 7.71 µM (inactive) | 4.53 µM (inactive) | 2.67 µM (inactive) | > 10 µM (inactive) | 4.42 | 8.85 µM (inactive) | 8.07 µM (inactive) | 1.5 µM (inactive) | 5.78 µM (inactive)
15 | O=c1c2c3c(sc2nc2n1N=C(c1ccc([N+](=O)[O-])cc1)CS2)CCCC3 | > 100 µM (inactive) | > 100 µM (inactive) | > 100 µM (inactive) | > 100 µM (inactive) | > 100 µM (inactive) | > 100 µM (inactive) | > 100 µM (inactive) | > 100 µM (inactive) | > 100 µM (inactive) | > 100 µM (inactive) | > 100 µM (inactive) | > 100 | > 100 µM (inactive) | > 100 µM (inactive) | > 100 µM (inactive) | > 100 µM (inactive)
16 | O=C(O)CSC(CC1(c2ccc(Cl)cc2)NC(=O)CS1)c1ccc(Cl)cc1 (stereo not given) | > 100 µM (inactive) | > 100 µM (inactive) | > 100 µM (inactive) | > 100 µM (inactive) | > 100 µM (inactive) |  | > 100 µM (inactive) | > 100 µM (inactive) | > 100 µM (inactive) | > 100 µM (inactive) | > 100 µM (inactive) | > 100 | > 100 µM (inactive) | > 100 µM (inactive) | 65.9 µM (inactive) | 80.9 µM (inactive)
17 | O=S(=O)(O)Nc1ccc(-c2nc3ccccc3s2)cc1Cl | > 100 µM (inactive) | > 100 µM (inactive) | > 100 µM (inactive) | > 100 µM (inactive) | > 100 µM (inactive) | 14.6 µM (inactive) | > 100 µM (inactive) | > 100 µM (inactive) | > 100 µM (inactive) |  | > 100 µM (inactive) | > 100 | > 100 µM (inactive) | > 100 µM (inactive) | > 100 µM (inactive) | > 100 µM (inactive)
